One test deals with rice blast. As to the kind of experiment: microbe, parasite or virus in culture. The test is classed as cell-based. Conditions: for the inhibition rate against rice blast (%) 0.03 mg/L: Table 21, 0.03 mg/L; for the inhibition rate against rice blast (%) 0.1 mg/L: Table 21, 0.1 mg/L; for the inhibition rate against rice blast (%) 0.3 mg/L: Table 21, 0.3 mg/L; for inhibition rate against rice blast: in vitro, dose 8.3 mg/L.

The subject of another test is cucumber downy mildew. Nature of the test: Protectant activity in vivo (whole plant) against cucumber downy mildew. Conditions: for pest or weed control at 25 µg/mL / pest or weed control at 50 µg/mL / pest or weed control at 100 µg/mL / pest or weed control at 12.5 µg/mL / pest or weed control at 400 µg/mL: Cucumis sativus, 168 h. The protocol: (§1) The method is as followed: The whole plant is used in this test. The compound is dissolved in a proper solvent to get mother solution. The proper solvent is selected from acetone, methanol, DMF and so on according to their dissolving capability to the sample. The volume rate of solvent and testing solution (v/v) is equal to or less than 5%. The mother solution is diluted with water containing 0.1% tween-80 to get the testing solution whose concentration is designed. The testing solution is sprayed to the host plant by a special plant sprayer. The plant is inoculated with fungus after 24 hours. According to the infecting characteristic of fungus, the plant is stored in a humidity chamber and then transferred into greenhouse after infection is finished. And the other plants are placed in greenhouse directly. The activity of compound is obtained by eyeballing after 7 days in common.

The test system of a further test is corn rust. Nature of the test: Protectant activity in vivo (whole plant) against corn rust. Conditions: for pest or weed control at 6.25 µg/mL / pest or weed control at 25 µg/mL / pest or weed control at 100 µg/mL / pest or weed control at 400 µg/mL: Zea mays, 168 h. The protocol:
as §1

A further test concerns cucumber gray mold. As to the kind of experiment: Activity in vitro (96-well, High Through Put): inhibition rate against cucumber gray mold. The format is cell-based. Conditions: for inhibition at 25 µg/mL: dose 25 mg/L. The protocol:
The method is as followed: High Through Put is used in the test. The compound is dissolved in a proper solvent to become a testing solution whose concentration is designed. The solvent is selected from acetone, methanol, DMF and so on according to their dissolving capability to the sample. In a no animalcule condition, the testing solution and pathogens suspension are added into the cells of 96 cells culture board, which then should be placed in the constant temperature box. 24 hours later, pathogen germination or growth can be investigated by eyeballing, and the activity in vitro of the compound is evaluated based on germination or growth of control treatment.

Setting [1] is: 25 mg/L, read-out: the protectant activity (%) against cucumber downy mildew.
Where [2] appears, read: 50 mg/L, read-out: the protectant activity (%) against cucumber downy mildew.
Setting [3] is: 100 mg/L, read-out: the protectant activity (%) against cucumber downy mildew.
Where [4] appears, read: 0.9 mg/L, read-out: the inhibition rate against cucumber gray mold (%).
Setting [5] is: 2.8 mg/L, read-out: the inhibition rate against cucumber gray mold (%).
Where [6] appears, read: 8.3 mg/L, read-out: the inhibition rate against cucumber gray mold (%).
The mark [7] stands for this setting: 400 mg/L, read-out: the protectant activity (%) against corn rust.
Setting [8] is: dose 400 mg/L, read-out: protectant activity against corn rust in vivo.

The text below walks through data of patent US8937072B2, “Substituted cyanoaniline compounds, preparation and use thereof” (Sinochem Corporation, priority 2011, dated 2015).

Like-named read-outs stand apart in the source and are kept apart here.

On to `O=[N+]([O-])c1cc(C(F)(F)F)c(Cl)c([N+](=O)[O-])c1Nc1ncc(C(F)(F)F)cc1Cl` [fluazinam], for which, in the test on rice blast (Pyricularia oryzae, read-out: the inhibition rate against rice blast (%) 0.03 mg/L), the inhibition at 0.03 µg/mL worked out at 50%. Besides, in the test on rice blast (Pyricularia oryzae, read-out: the inhibition rate against rice blast (%) 0.1 mg/L), the inhibition at 0.1 µg/mL stood at 80%. Further, the inhibition at 0.3 µg/mL in the test with rice blast (Pyricularia oryzae, read-out: the inhibition rate against rice blast (%) 0.3 mg/L) turned out to be 100%.
Consider `N#Cc1c(Cl)c(Cl)c(C#N)c(Nc2cc(Cl)cnc2Cl)c1Cl` [Compound C-118], for which, in the test on rice blast, the “the inhibition rate against rice blast (%) 0.03 mg/L” value (shortened to “the inhibition rate … (%) 0.03 mg/L”) was 100%, the “the inhibition rate against rice blast (%) 0.1 mg/L” value (“the inhibition rate … (%) 0.1 mg/L” for short) worked out at 100% and the “the inhibition rate against rice blast (%) 0.3 mg/L” value (shortened to “the inhibition rate … (%) 0.3 mg/L”) is on record as 100%. Further, in the test with cucumber downy mildew (dose 400 mg/L), the “protectant activity against cucumber downy mildew in vivo” value is listed as 100%.
In the case of `N#Cc1c(Cl)c(Cl)c(C#N)c(Nc2ncccn2)c1Cl` [Compound C-126], in the test with rice blast, the “inhibition rate against rice blast” value came to 80%. In addition, the “protectant activity against cucumber downy mildew in vivo” value in the test with cucumber downy mildew (dose 400 mg/L) was found to be 100%.
Consider `COc1ccc(Nc2c(Cl)c(C#N)c(Cl)c(Cl)c2C#N)cc1` [Compound C-14], for which the “inhibition rate against rice blast” value in the test on rice blast was 80%.
In the case of `N#Cc1c(Cl)c(Cl)c(Nc2c(Br)cc([N+](=O)[O-])cc2Br)c(C#N)c1Cl` [Compound B-57], the “the protectant activity (%) against corn rust” value in the test on corn rust (6.25 mg/L) came out at 60%; in the test with corn rust (25 mg/L), 80%; in the test with corn rust (100 mg/L) it was 85%; with corn rust (400 mg/L) it was 100%. In addition, the “protectant activity against corn rust in vivo” value in the test on corn rust (dose 400 mg/L) was 100%. Besides, the “the protectant activity (%) against cucumber downy mildew” value was determined as 30% in the test with cucumber downy mildew (12.5 mg/L), 100% in the test on cucumber downy mildew (25 mg/L), 100% in the test with cucumber downy mildew (50 mg/L) and 100% with cucumber downy mildew (100 mg/L). For the same compound, the “protectant activity against cucumber downy mildew in vivo” value in the test with cucumber downy mildew (dose 25 mg/L), with cucumber downy mildew (dose 50 mg/L), with cucumber downy mildew (dose 100 mg/L) and with cucumber downy mildew (dose 400 mg/L) was 100% in each case. In addition, the entries for the “the inhibition rate against cucumber gray mold (%)” value with cucumber gray mold (0.9 mg/L), in the test on cucumber gray mold (2.8 mg/L) and with cucumber gray mold (8.3 mg/L) were 80%, 100% and 100%, respectively.
In the case of `Cc1ccc(Nc2c(F)c(F)c(C#N)c(F)c2C#N)cc1` [KC9], the pest or weed control at 25 µg/mL with cucumber downy mildew (setting [1]) stood at 20%; in the test with cucumber downy mildew (dose 25 mg/L, read-out: protectant activity against cucumber downy mildew in vivo), 20%. The pest or weed control at 50 µg/mL in the test with cucumber downy mildew (setting [2]) was found to be 30%; in the test on cucumber downy mildew (dose 50 mg/L, read-out: protectant activity against cucumber downy mildew in vivo), 30%. Besides, the pest or weed control at 100 µg/mL in the test on cucumber downy mildew (setting [3]) stood at 65%. Also, the inhibition at 0.3 µg/mL with cucumber gray mold (0.3 mg/L) stood at 0%. Moreover, the inhibition at 0.9 µg/mL with cucumber gray mold (setting [4]) came to 0%. In addition, the inhibition at 2.8 µg/mL in the test with cucumber gray mold (setting [5]) turned out to be 0%; with cucumber gray mold (in vitro, dose 2.8 mg/L, read-out: inhibition rate against cucumber gray mold), 0%. The inhibition at 8.3 µg/mL in the test with cucumber gray mold (setting [6]) was 80%.
Turning to `N#Cc1c(Cl)c(Cl)c(Nc2cc(Cl)cnc2Cl)c(C#N)c1Cl` [Compound B-133], the “the inhibition rate … (%) 0.03 mg/L” value with rice blast stood at 100%. Also, in the test with rice blast, the “the inhibition rate … (%) 0.1 mg/L” value is on record as 100%. In the test with rice blast, the “the inhibition rate … (%) 0.3 mg/L” value was 100%. Moreover, the “the protectant activity (%) against cucumber downy mildew” value is 95% in the test with cucumber downy mildew (12.5 mg/L), 100% in the test on cucumber downy mildew (25 mg/L), 100% in the test with cucumber downy mildew (50 mg/L) and 100% in the test with cucumber downy mildew (100 mg/L). Moreover, the “protectant activity against cucumber downy mildew in vivo” value with cucumber downy mildew (dose 6.25 mg/L) came out at 80%; in the test with cucumber downy mildew (dose 25 mg/L) it was 100%; in the test on cucumber downy mildew (dose 50 mg/L), 100%; in the test with cucumber downy mildew (dose 100 mg/L), 100%.
`N#Cc1c(Cl)c(Cl)c(Nc2ccc(Cl)cc2[N+](=O)[O-])c(C#N)c1Cl` [Compound B-39]: in the test with rice blast, the “the inhibition rate … (%) 0.03 mg/L” value is 0%, the “the inhibition rate … (%) 0.1 mg/L” value was found to be 80% and the “the inhibition rate … (%) 0.3 mg/L” value amounted to 100%. Further, in the test with cucumber downy mildew (dose 400 mg/L), the “protectant activity against cucumber downy mildew in vivo” value amounted to 100%.
For `Cc1ccc(Nc2c(Cl)c(F)c(C#N)c(F)c2C#N)cc1` [KC19], the pest or weed control at 6.25 µg/mL in the test on corn rust (6.25 mg/L) amounted to 0%. Further, the pest or weed control at 25 µg/mL in the test on corn rust (25 mg/L) was 0%. This compound also displayed a pest or weed control at 100 µg/mL with corn rust (100 mg/L) of 0%. Further, the pest or weed control at 400 µg/mL in the test on corn rust (setting [7]) and with corn rust (setting [8]) was 0% in each case. In the test with cucumber gray mold (0.3 mg/L), this compound yielded an inhibition at 0.3 µg/mL of 0%. Moreover, the inhibition at 0.9 µg/mL with cucumber gray mold (setting [4]) was 0%. Besides, the inhibition at 2.8 µg/mL in the test with cucumber gray mold (setting [5]) is 0%. Moreover, the inhibition at 8.3 µg/mL with cucumber gray mold (setting [6]) is 0%. This compound also came in with an inhibition at 25 µg/mL with cucumber gray mold (in vitro) of 0%.
Regarding `Cc1c(Cl)c([N+](=O)[O-])cc([N+](=O)[O-])c1Nc1c(Cl)c(Cl)c(C#N)c(Cl)c1C#N` [Compound B-68], the “protectant activity against cucumber downy mildew in vivo” value in the test with cucumber downy mildew (dose 100 mg/L) and in the test on cucumber downy mildew (dose 400 mg/L) was 100% throughout. For the same compound, in the test on cucumber gray mold (in vitro, dose 0.9 mg/L), the “inhibition rate against cucumber gray mold” value came to 80%.
Regarding `N#Cc1c(Cl)c(Cl)c(Nc2cc(C(F)(F)F)ccc2F)c(C#N)c1Cl` [Compound B-30], in the test on rice blast, the “the inhibition rate … (%) 0.03 mg/L” value stood at 0%, the “the inhibition rate … (%) 0.1 mg/L” value stood at 50% and the “the inhibition rate … (%) 0.3 mg/L” value was determined as 100%.
Consider `COc1ccc(Nc2c(F)c(C#N)c(F)c(F)c2C#N)cc1` [Compound C-68], for which the “inhibition rate against rice blast” value with rice blast is listed as 80%.
In turn, `CN(C)c1ccc(Nc2c(F)c(F)c(C#N)c(F)c2C#N)cc1` [KC24] registered a pest or weed control at 6.25 µg/mL with corn rust (6.25 mg/L) of 0%. Further, the pest or weed control at 25 µg/mL in the test with corn rust (25 mg/L) and with cucumber downy mildew (setting [1]) was 0% each time. Moreover, the pest or weed control at 100 µg/mL with corn rust (100 mg/L) and with cucumber downy mildew (setting [3]) was 0% each time. Besides, the pest or weed control at 400 µg/mL in the test on corn rust (setting [7]), with corn rust (setting [8]) and in the test with cucumber downy mildew (dose 400 mg/L) was 0% throughout. The same compound came in with a pest or weed control at 12.5 µg/mL in the test with cucumber downy mildew (12.5 mg/L) of 0%. For the same compound, the pest or weed control at 50 µg/mL in the test on cucumber downy mildew (setting [2]) was 0%. Besides, in the test with cucumber gray mold (0.3 mg/L), the inhibition at 0.3 µg/mL was 0%. Further, in the test with cucumber gray mold (setting [4]), the inhibition at 0.9 µg/mL was determined as 0%. In addition, the inhibition at 2.8 µg/mL in the test on cucumber gray mold (setting [5]) was determined as 0%. The inhibition at 8.3 µg/mL with cucumber gray mold (setting [6]) is 0%. The same compound returned an inhibition at 25 µg/mL in the test on cucumber gray mold (in vitro) of 0%.
In the test on corn rust (6.25 mg/L), `COc1ccc(Nc2c(F)c(F)c(C#N)c(C#N)c2F)c(OC)c1` [KC27] displayed a pest or weed control at 6.25 µg/mL of 0%. Further, the pest or weed control at 25 µg/mL with corn rust (25 mg/L) and in the test with cucumber downy mildew (setting [1]) was 0% throughout. Also, the pest or weed control at 100 µg/mL in the test on corn rust (100 mg/L) and in the test on cucumber downy mildew (setting [3]) was 0% in each case. In addition, the pest or weed control at 400 µg/mL with corn rust (setting [7]), in the test on corn rust (setting [8]) and with cucumber downy mildew (dose 400 mg/L) was 0% throughout. In the test with cucumber downy mildew (12.5 mg/L), this compound yielded a pest or weed control at 12.5 µg/mL of 0%. Further, the pest or weed control at 50 µg/mL in the test with cucumber downy mildew (setting [2]) is 0%. The compound also showed an inhibition at 0.3 µg/mL in the test on cucumber gray mold (0.3 mg/L) of 0%. Further, the inhibition at 0.9 µg/mL in the test with cucumber gray mold (setting [4]) was 0%. In addition, the inhibition at 2.8 µg/mL with cucumber gray mold (setting [5]) amounted to 0%. Moreover, the inhibition at 8.3 µg/mL in the test with cucumber gray mold (setting [6]) was 0%. The inhibition at 25 µg/mL in the test on cucumber gray mold (in vitro) came out at 0%.
On to `N#Cc1c(Cl)c(Cl)c(Nc2ccc([N+](=O)[O-])cc2Cl)c(Cl)c1C#N` [Compound A-15], for which the “protectant activity against corn rust in vivo” value in the test with corn rust (dose 400 mg/L) was 100%. Further, the “protectant activity against cucumber downy mildew in vivo” value with cucumber downy mildew (dose 50 mg/L), in the test on cucumber downy mildew (dose 100 mg/L) and in the test with cucumber downy mildew (dose 400 mg/L) was 100% throughout. In addition, the “the inhibition rate against cucumber gray mold (%)” value in the test with cucumber gray mold (0.3 mg/L), with cucumber gray mold (0.9 mg/L), in the test with cucumber gray mold (2.8 mg/L) and with cucumber gray mold (8.3 mg/L) was 100% in each case.
